Measurements: ChEMBL document CHEMBL3880396, “Calcium channel inhibitors comprising benzhydril spaced from piperazine” (2004)

What was measured:
[1] = Selectivity ratio of IC50 for alpha1C/alpha2delta/beta1b L-type calcium channel (unknown origin) to IC50 for rat brain […] N-type calcium channel
[2] = Selectivity ratio of IC50 for alpha1A/alpha2delta/beta1b P/Q-type calcium channel (unknown origin) to IC50 for rat brain […] N-type calcium channel

SMILES | Ratio IC50 [1] | Ratio IC50 [2]
O=C(O)C1CN(C(c2ccccc2)c2ccccc2)CCN1C(=O)CC(c1ccccc1)c1ccccc1 (configuration not stated) | 103 | 9.4
COc1ccc(C(c2ccc(C(F)(F)F)cc2)N2CCN(C(=O)CC(c3ccccc3)c3ccccc3)CC2)cc1 (configuration not stated) | > 54 | 41
CCOC(=O)C1CN(C(c2ccccc2)c2ccccc2)CCN1C(=O)CC(c1ccccc1)c1ccccc1 (configuration not stated) | 2880 | 69

Second part, the compound after the results:

Ratio IC50 [1] | Ratio IC50 [2] | SMILES
103 | 5.1 | O=C(CC(c1ccccc1)c1ccccc1)N1CCN(C(c2ccccc2)c2ccc(C(F)(F)F)cc2)CC1 (configuration not stated)
> 40 | > 40 | CC(C)(C)c1cc(C(c2ccccc2)N2CCN(C(=O)CC(c3ccccc3)c3ccccc3)CC2)cc(C(C)(C)C)c1O (configuration not stated)
831 | 28 | O=C(CC(c1ccccc1)c1ccccc1)N1CCN(C(c2ccccc2)c2ccc(Cl)cc2)CC1 (configuration not stated)
